Laboratory results from patent US20180325825A1 (GEMPHIRE THERAPEUTICS INC., priority 2015, published 2018).

What was measured:
[1] = Pharmacokinetics of prototype combinations of atorvastatin and gemcabene after a single oral dose to male dogs; format: in vivo, male purebred beagle dogs; conditions: 150 mg gemcabene IR, composite data from all animals
[2] = background statement, cited from earlier work

## CC(C)(CCCCOCCCCC(C)(C)C(=O)O)C(=O)O [gemcabene, 6,6′-oxybis(2,2-dimethylhexanoic acid)]
[1]
  gemcabene pharmacokinetic profile in combination with atorvastatin prototype versus administered alone: essentially the same
[2]
  completeness of intestinal absorption in absence or presence of food: essentially unchanged
  effect on the pharmacokinetics of simvastatin and atorvastatin in vivo: not to significantly affect
[2]; oral
  absorption in the intestines: almost complete absorption
